Results published in ChEMBL document CHEMBL5696443 (Clin Cancer Res, 2016).
Calls of active or inactive are those of the source. The calls are words filed in the database; no cut-off is given here.

Experiments:
[1] = target: Mitogen-activated protein kinase kinase kinase 7 (Homo sapiens) (UniProt O43318); test: Inhibition of human MAP3K7 at 1 uM using casein as substrate in presence of [gamma33P]-ATP by HotSpot assay relative to control
[2] = target: Ephrin type-B receptor 3 (Homo sapiens) (UniProt P54753); test: Inhibition of human EPHB3 at 1 uM using poly (Glu, Tyr)4:1 as substrate in presence of [gamma33P]-ATP by HotSpot assay relative to control
cells = settings: Homo sapiens, BaF3, 72 h
[3] = test system: EML4-ALK (Homo sapiens), Q9UM73+Q9HC35 [G1202R]; settings: BaF3, time 3-5 weeks
[4] = target: Eukaryotic elongation factor 2 kinase (Homo sapiens) (UniProt O00418); test: Inhibition of human EEF2K at 1 uM using RKKFGESEKTKTKEFL as substrate in presence of [gamma33P]-ATP by HotSpot assay relative to control
[5] = test system: EML4-ALK (Homo sapiens), Q9UM73+Q9HC35 [L1152P]; settings: BaF3, dose 500.0 nmol/L, time 3-5 weeks
[6] = target: Beta-adrenergic receptor kinase 1 (Homo sapiens) (UniProt P25098); test: Inhibition of human ADRBK1 at 1 uM using casein as substrate in presence of [gamma33P]-ATP by HotSpot assay relative to control
Chain of Beta-adrenergic receptor kinase 1 (Homo sapiens) (P25098 whole entry): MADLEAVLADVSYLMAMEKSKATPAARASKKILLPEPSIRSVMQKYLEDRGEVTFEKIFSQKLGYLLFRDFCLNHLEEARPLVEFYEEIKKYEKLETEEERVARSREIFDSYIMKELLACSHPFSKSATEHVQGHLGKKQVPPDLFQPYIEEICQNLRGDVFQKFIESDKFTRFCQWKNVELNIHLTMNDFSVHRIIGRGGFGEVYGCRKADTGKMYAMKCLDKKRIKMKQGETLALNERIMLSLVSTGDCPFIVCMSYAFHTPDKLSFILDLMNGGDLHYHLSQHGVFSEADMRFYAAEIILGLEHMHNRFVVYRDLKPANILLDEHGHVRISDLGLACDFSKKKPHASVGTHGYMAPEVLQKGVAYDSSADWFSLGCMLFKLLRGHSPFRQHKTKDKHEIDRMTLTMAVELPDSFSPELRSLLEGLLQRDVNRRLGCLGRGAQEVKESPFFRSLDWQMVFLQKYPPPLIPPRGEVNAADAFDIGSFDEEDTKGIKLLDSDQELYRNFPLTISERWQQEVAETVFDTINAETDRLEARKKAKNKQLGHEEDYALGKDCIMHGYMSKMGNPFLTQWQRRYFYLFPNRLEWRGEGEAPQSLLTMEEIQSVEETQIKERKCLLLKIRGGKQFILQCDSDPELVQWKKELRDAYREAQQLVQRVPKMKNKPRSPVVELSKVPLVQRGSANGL

NCI-H2228 = test: Antitumor activity against ALK positive human NCI-H2228 cells xenografted in SCID beige mouse assessed as tumor regression at 10 to 50 mg/kg, po administered once daily for 21 days and measured 28 days after treatment; format: functional, organism-based; settings: dose 10-50 mg/kg, time 28.0 day
[7] = test system: EML4-ALK (Homo sapiens), Q9UM73+Q9HC35 [E1210K]; settings: BaF3, dose 500.0 nmol/L, time 3-5 weeks
[8] = target: Serine/threonine-protein kinase PAK 6 (Homo sapiens) (UniProt Q9NQU5); test: Inhibition of human PAK6 at 1 uM using RRRLSFAEPG as substrate in presence of [gamma33P]-ATP by HotSpot assay relative to control
[9] = target: Serine/threonine-protein kinase Nek4 (Homo sapiens) (UniProt P51957); test: Inhibition of human NEK4 at 1 uM using MBP as substrate in presence of [gamma33P]-ATP by HotSpot assay relative to control
[10] = target: Dual specificity protein kinase CLK2 (Homo sapiens, UniProt P49760); test: Inhibition of human CLK2 using MBP as substrate in presence of [gamma33P]-ATP by HotSpot assay
Chain of Dual specificity protein kinase CLK2 (P49760 whole entry): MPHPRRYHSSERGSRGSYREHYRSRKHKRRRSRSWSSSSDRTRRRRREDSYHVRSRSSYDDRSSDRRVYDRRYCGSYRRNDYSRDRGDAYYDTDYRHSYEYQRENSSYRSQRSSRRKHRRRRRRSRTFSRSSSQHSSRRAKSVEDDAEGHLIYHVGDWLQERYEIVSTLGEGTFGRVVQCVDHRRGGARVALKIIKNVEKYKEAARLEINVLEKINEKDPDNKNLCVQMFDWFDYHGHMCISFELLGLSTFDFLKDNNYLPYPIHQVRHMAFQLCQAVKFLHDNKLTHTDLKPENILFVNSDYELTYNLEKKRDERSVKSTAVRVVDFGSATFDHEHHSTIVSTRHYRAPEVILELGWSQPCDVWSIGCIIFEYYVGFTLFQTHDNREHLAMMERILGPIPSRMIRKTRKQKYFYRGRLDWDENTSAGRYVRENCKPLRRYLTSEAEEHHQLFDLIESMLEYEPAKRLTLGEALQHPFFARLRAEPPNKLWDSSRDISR

[11] = target: Cyclin-dependent kinase 5/CDK5 activator 1 (Homo sapiens) (UniProt Q00535+Q15078); test: Inhibition of human CDK5/p25 at 1 uM using RB protein as substrate in presence of [gamma33P]-ATP by HotSpot assay relative to control; format: protein-complex assay
[12] = target: Ephrin type-B receptor 2 (Homo sapiens) (UniProt P29323); test: Inhibition of human EPHB2 at 1 uM using poly (Glu, Tyr)4:1 as substrate in presence of [gamma33P]-ATP by HotSpot assay relative to control
[13] = target: Protein kinase C beta type (Homo sapiens) (UniProt P05771); test: Inhibition of human PRKCB at 1 uM using ERMRPRKRQGSVRRRV as substrate in presence of [gamma33P]-ATP by HotSpot assay relative to control
[14] = target: Mitogen-activated protein kinase 10 (Homo sapiens) (UniProt P53779); test: Inhibition of human MAPK10 at 1 uM using ATF2 as substrate in presence of [gamma33P]-ATP by HotSpot assay relative to control
[15] = target: Death-associated protein kinase 3 (Homo sapiens) (UniProt O43293); test: Inhibition of human DAPK3 at 1 uM using KKLNRTLSFAEPG as substrate in presence of [gamma33P]-ATP by HotSpot assay relative to control
Chain of Death-associated protein kinase 3 (Homo sapiens) (O43293 whole entry, looked up): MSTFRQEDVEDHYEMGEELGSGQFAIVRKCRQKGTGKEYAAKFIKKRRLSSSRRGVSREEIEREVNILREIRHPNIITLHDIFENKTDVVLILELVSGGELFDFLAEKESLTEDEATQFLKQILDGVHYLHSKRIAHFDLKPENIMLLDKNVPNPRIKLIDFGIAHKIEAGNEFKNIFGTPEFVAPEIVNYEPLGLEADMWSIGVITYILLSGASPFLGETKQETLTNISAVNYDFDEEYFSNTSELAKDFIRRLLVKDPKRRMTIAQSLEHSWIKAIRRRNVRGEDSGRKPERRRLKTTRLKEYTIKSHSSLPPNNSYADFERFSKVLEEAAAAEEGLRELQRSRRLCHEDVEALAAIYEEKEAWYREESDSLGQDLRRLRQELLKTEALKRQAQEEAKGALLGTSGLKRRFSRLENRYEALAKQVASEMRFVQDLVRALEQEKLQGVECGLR

[16] = target: Macrophage-stimulating protein receptor (Homo sapiens) (UniProt Q04912); test: Inhibition of human MST1R at 1 uM using KKSRGDYMTMQIG as substrate in presence of [gamma33P]-ATP by HotSpot assay relative to control
[17] = target: [Pyruvate dehydrogenase (acetyl-transferring)] kinase isozyme 1, mitochondrial (Homo sapiens) (UniProt Q15118); test: Inhibition of human PDK1 at 1 uM using MBP as substrate in presence of [gamma33P]-ATP by HotSpot assay relative to control
in vitro = settings: mouse, BaF3 cells
[18] = target: Tyrosine-protein kinase ABL2 (Homo sapiens) (UniProt P42684); test: Inhibition of human ABL2 at 1 uM using EAIYAAPFAKKK as substrate in presence of [gamma33P]-ATP by HotSpot assay relative to control
[19] = target: Lymphokine-activated killer T-cell-originated protein kinase (Homo sapiens) (UniProt Q96KB5); test: Inhibition of human PBK at 1 uM using MBP as substrate in presence of [gamma33P]-ATP by HotSpot assay relative to control
Chain of Lymphokine-activated killer T-cell-originated protein kinase (Homo sapiens) (Q96KB5 whole entry): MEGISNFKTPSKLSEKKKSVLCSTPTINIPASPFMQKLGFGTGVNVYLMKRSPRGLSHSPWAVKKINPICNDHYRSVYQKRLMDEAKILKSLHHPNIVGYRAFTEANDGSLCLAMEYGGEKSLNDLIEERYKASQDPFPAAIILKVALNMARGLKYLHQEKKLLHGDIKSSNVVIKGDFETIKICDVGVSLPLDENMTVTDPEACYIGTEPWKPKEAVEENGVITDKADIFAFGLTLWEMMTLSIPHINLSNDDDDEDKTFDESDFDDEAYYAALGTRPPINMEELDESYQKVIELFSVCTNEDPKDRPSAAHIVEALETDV

[20] = target: Serine/threonine-protein kinase Nek7 (Homo sapiens) (UniProt Q8TDX7); test: Inhibition of human NEK7 at 1 uM using casein as substrate in presence of [gamma33P]-ATP by HotSpot assay relative to control
Chain of Serine/threonine-protein kinase Nek7 (Homo sapiens) (Q8TDX7 whole entry, looked up): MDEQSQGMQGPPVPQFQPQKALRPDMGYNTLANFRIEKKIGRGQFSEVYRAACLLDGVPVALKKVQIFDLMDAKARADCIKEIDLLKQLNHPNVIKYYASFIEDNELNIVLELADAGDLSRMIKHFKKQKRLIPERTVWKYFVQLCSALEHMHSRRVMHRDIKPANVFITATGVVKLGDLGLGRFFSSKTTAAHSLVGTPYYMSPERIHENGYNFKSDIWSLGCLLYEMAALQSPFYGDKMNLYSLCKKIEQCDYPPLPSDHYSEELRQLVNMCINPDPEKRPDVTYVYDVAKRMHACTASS

[21] = target: G protein-coupled receptor kinase 6 (Homo sapiens) (UniProt P43250); test: Inhibition of human GRK6 at 1 uM using casein as substrate in presence of [gamma33P]-ATP by HotSpot assay relative to control
Chain of G protein-coupled receptor kinase 6 (Homo sapiens) (P43250 whole entry, looked up): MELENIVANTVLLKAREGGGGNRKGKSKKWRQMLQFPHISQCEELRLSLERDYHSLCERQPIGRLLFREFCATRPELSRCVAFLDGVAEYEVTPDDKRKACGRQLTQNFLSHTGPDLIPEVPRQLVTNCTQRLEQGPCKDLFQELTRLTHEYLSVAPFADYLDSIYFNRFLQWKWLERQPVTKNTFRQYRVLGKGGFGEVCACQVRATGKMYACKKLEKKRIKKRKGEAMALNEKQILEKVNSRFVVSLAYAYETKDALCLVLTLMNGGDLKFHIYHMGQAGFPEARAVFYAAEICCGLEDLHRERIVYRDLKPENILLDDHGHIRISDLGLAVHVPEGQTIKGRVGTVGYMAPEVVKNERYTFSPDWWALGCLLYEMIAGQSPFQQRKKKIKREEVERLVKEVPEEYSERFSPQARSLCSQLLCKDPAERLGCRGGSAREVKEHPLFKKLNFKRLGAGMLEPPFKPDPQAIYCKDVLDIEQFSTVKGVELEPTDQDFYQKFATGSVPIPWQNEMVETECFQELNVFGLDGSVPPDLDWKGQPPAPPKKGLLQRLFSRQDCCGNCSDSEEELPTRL

[22] = target: Serine/threonine-protein kinase pim-2 (Homo sapiens) (UniProt Q9P1W9); test: Inhibition of human PIM2 at 1 uM using RSRHSSYPAGT as substrate in presence of [gamma33P]-ATP by HotSpot assay relative to control
[23] = target: Mitogen-activated protein kinase 3 (Homo sapiens) (UniProt P27361); test: Inhibition of human MAPK3 at 1 uM using MBP as substrate in presence of [gamma33P]-ATP by HotSpot assay relative to control
[24] = target: Dual specificity protein kinase TTK (Homo sapiens) (UniProt P33981); test: Inhibition of human TTK at 1 uM using MBP as substrate in presence of [gamma33P]-ATP by HotSpot assay relative to control
Chain of Dual specificity protein kinase TTK (Homo sapiens) (P33981 whole entry): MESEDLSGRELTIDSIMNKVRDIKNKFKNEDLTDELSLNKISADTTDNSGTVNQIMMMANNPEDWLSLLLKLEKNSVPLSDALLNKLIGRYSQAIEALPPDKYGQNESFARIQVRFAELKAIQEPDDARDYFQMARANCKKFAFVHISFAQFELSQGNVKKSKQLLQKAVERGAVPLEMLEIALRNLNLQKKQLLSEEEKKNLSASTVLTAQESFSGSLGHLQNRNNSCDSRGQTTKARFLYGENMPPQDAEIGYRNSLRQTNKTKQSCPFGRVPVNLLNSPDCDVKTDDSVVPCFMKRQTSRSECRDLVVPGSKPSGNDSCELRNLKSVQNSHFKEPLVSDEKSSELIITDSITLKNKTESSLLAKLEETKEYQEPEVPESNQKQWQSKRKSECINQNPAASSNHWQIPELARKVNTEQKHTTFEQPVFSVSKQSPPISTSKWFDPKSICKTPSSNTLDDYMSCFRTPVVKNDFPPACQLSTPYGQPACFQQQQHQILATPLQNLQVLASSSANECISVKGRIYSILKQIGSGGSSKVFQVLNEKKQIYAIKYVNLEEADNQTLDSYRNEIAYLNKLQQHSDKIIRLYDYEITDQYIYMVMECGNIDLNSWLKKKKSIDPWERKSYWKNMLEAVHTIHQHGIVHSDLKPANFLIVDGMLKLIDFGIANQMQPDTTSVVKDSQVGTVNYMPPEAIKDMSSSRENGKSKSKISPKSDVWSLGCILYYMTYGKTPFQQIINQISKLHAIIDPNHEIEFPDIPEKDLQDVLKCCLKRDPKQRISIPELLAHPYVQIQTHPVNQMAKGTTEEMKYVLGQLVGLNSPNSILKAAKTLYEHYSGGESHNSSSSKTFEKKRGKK

[25] = test system: EML4-ALK (Homo sapiens), Q9UM73+Q9HC35 [F1174V]; settings: BaF3, time 3-5 weeks
[26] = target: Platelet-derived growth factor receptor beta (Homo sapiens) (UniProt P09619); test: Inhibition of human PDGFRbeta at 1 uM using poly (Glu, Tyr)4:1 as substrate in presence of [gamma33P]-ATP by HotSpot assay relative to control
Chain of Platelet-derived growth factor receptor beta (Homo sapiens) (P09619 whole entry): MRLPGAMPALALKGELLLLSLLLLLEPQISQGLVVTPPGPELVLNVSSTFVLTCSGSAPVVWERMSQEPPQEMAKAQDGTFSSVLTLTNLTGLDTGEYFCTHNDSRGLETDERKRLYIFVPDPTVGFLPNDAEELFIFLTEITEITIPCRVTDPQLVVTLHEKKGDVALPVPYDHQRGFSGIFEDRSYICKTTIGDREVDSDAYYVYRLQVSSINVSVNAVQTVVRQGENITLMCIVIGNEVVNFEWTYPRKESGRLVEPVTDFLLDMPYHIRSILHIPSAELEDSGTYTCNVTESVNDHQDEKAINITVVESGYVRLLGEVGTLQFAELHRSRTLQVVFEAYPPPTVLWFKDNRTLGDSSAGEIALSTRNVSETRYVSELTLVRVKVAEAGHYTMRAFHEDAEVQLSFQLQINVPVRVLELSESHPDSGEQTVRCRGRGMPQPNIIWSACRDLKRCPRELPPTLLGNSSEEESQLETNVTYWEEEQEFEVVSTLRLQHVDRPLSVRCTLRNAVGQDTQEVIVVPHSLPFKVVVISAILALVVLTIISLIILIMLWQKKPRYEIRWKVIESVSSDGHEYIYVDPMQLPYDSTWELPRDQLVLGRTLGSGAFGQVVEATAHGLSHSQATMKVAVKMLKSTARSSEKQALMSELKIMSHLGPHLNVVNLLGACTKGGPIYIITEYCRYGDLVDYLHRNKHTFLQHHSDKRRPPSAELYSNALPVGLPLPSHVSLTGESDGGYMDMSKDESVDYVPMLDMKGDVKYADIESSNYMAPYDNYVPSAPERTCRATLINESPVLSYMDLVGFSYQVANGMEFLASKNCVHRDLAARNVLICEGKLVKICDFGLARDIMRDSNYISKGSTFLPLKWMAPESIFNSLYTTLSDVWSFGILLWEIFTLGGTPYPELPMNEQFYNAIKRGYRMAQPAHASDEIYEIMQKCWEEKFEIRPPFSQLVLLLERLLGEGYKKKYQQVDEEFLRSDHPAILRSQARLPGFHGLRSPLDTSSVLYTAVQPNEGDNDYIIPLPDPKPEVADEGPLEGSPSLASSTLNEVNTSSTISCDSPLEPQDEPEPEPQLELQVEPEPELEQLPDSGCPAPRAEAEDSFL

**Q.** Which results are given for `COc1cc(N2CCC(N3CCN(C)CC3)CC2)ccc1Nc1ncc(Cl)c(Nc2ccccc2P(C)(C)=O)n1` [BRIGATINIB]?
**A.** inhibition [1]: < 90%; inhibition [2]: < 90%; IC50 (cells): 31 nM; IC90 [3]: 762 nM; inhibition [4]: < 90%; inhibition [5]: Active; inhibition [6]: < 90%; Activity (NCI-H2228): Active; inhibition [7]: Active; inhibition [8]: < 90%; inhibition [9]: < 90%; IC50 [10]: 240 nM; inhibition [11]: < 90%; inhibition [12]: < 90%; inhibition [13]: < 90%; inhibition [14]: < 90%; inhibition [15]: < 90%; inhibition [16]: < 90%; inhibition [17]: < 90%; IC50 (in vitro): 3210 nM; IC90 (in vitro): 9500 nM; inhibition [18]: < 90%; inhibition [19]: < 90%; inhibition [20]: < 90%; inhibition [21]: < 90%; inhibition [22]: < 90%; inhibition [23]: < 90%; inhibition [24]: < 90%; IC90 [25]: 195 nM; inhibition [26]: < 90%
